Test [1] concerns the target wild-type un-phosphorylated FGFR1 (Homo sapiens, UniProt P11362). Nature of the test: FGFR Enzymatic Assay (FRET peptide phosphorylation), FGFR1. Conditions: pre-incubated for 4 hours.
Test [2] concerns the target wild-type un-phosphorylated FGFR3 (Homo sapiens, UniProt P22607). Nature of the test: FGFR Enzymatic Assay (FRET peptide phosphorylation), FGFR3.
The target of test [3] is wild-type un-phosphorylated FGFR2 (Homo sapiens, UniProt P21802). The experiment in a line: FGFR Enzymatic Assay (FRET peptide phosphorylation), FGFR2.
wild-type un-phosphorylated FGFR2, sequence (P21802 22-821): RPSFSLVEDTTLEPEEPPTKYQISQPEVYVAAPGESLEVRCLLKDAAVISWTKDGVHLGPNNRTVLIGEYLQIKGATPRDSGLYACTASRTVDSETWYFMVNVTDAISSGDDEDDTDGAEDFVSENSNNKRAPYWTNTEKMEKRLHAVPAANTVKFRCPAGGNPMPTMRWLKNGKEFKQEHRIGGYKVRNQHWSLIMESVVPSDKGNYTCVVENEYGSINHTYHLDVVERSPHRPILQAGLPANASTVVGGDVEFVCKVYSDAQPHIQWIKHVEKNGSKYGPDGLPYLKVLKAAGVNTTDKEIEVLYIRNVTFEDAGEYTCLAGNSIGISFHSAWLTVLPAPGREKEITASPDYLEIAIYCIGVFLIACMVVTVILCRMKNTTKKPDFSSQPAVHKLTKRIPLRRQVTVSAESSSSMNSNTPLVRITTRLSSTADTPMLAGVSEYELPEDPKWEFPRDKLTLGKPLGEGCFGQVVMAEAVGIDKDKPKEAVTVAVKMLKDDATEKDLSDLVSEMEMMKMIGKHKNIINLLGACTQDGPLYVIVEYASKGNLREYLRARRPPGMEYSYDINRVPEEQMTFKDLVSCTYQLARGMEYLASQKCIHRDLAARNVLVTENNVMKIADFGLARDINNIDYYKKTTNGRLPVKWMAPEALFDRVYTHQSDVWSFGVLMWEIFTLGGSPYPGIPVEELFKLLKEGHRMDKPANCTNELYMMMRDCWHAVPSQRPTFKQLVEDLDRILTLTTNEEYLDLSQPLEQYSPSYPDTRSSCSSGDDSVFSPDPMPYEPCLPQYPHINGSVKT
Protocol: The inhibitor potency of the exemplified compounds was determined in an enzyme discontinuous assay that measures peptide phosphorylation using FRET measurements to detect product formation. Inhibitors were serially diluted in DMSO and a volume of 0.2 μL was transferred to the wells of a 384-well plate. […] Appropriate controls (enzyme blank and enzyme with no inhibitor) were included on the plate. […] The 10 μL/well reaction concentration of the peptide substrate was 500 nM whereas the ATP concentration was maintained near or below the ATP Km. The ATP Km values were pre-determined in a separate series of experiments. The reaction plate was incubated at 25° C. for 1 hr and the reactions were ended with the addition of 5 μL/well of quench solution (50 mM Tris, 150 mM NaCl, 0.5 mg/mL BSA, pH 7.8; 45 mM EDTA, 600 nM staurosporin, with Perkin Elmer Lance Reagents at 3.75 nM Eu-antibody PY20 and 180 nM APC-Streptavidin). The plate was allowed to equilibrate for ˜10 minutes at ambient temperature before scanning on a PheraStar plate reader (BMG Labtech) instrument.
Either GraphPad prism or XLfit was used to analyze the data. The IC50 values were derived by fitting the data to a four parameter logistic equation producing a sigmoidal dose-response curve with a variable Hill coefficient. Prism equation: Y=Bottom+(Top-Bottom)/(1+10^((Log IC50-X)*Hill slope)); XLfit equation: Y=(A+((B−A)/(1+((X/C)^D)))) where X is the logarithm of inhibitor concentration and Y is the response.
GraphPad prism3 was used to analyze the data. The IC50 values were derived by fitting the data to the equation for a sigmoidal dose-response with a variable slope. Y=Bottom+(Top-Bottom)/(1+10^((Log IC50-X)*Hill Slope)) where X is the logarithm of concentration and Y is the response.
The data in Table 1 was measured in wild-type un-phosphorylated FGFR1, FGFR2, FGFR3, and FGFR4 proteins.
For test [4], the target named is wild-type un-phosphorylated FGFR4 (Homo sapiens, UniProt P22455). Nature of the test: FGFR Enzymatic Assay (FRET peptide phosphorylation), FGFR4.
wild-type un-phosphorylated FGFR4, sequence (P22455 22-802): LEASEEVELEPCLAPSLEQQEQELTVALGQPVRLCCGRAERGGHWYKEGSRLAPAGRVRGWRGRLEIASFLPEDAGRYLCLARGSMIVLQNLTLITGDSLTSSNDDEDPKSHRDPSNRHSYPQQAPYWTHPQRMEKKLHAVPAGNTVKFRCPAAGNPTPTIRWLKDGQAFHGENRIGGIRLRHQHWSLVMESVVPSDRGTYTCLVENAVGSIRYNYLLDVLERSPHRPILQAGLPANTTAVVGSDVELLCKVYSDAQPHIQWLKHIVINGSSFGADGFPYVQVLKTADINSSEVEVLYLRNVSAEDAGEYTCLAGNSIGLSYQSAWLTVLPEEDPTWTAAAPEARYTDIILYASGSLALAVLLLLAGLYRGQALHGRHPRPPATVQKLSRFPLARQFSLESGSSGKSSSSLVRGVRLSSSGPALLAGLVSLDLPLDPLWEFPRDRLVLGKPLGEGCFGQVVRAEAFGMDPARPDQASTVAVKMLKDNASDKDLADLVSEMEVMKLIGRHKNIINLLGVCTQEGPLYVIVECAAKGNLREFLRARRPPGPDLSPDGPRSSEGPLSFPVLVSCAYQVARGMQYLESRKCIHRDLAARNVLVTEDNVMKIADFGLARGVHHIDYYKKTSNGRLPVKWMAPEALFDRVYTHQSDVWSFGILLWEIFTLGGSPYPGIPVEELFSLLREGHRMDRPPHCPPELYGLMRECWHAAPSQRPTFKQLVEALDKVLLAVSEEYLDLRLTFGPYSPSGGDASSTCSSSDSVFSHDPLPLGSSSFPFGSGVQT
Setting [5] is: FGFR1, wild-type un-phosphorylated FGFR1.
Where [6] appears, read: read-out: FGFR1, wild-type un-phosphorylated FGFR1.
[7] abbreviates: read-out: FGFR4, wild-type un-phosphorylated FGFR4, pre-incubated for 4 hours.
Where [8] appears, read: read-out: FGFR2, wild-type un-phosphorylated FGFR2, pre-incubated for 4 hours.

SMILES strings stand for the structures. Read-outs that look alike come from different tables or passages of the source.

IC50 data for 21 compounds are collected here from patent US12083124B2 (Incyte Corporation, priority 2019, dated 2024).

wild-type un-phosphorylated FGFR1, sequence (P11362 22-822): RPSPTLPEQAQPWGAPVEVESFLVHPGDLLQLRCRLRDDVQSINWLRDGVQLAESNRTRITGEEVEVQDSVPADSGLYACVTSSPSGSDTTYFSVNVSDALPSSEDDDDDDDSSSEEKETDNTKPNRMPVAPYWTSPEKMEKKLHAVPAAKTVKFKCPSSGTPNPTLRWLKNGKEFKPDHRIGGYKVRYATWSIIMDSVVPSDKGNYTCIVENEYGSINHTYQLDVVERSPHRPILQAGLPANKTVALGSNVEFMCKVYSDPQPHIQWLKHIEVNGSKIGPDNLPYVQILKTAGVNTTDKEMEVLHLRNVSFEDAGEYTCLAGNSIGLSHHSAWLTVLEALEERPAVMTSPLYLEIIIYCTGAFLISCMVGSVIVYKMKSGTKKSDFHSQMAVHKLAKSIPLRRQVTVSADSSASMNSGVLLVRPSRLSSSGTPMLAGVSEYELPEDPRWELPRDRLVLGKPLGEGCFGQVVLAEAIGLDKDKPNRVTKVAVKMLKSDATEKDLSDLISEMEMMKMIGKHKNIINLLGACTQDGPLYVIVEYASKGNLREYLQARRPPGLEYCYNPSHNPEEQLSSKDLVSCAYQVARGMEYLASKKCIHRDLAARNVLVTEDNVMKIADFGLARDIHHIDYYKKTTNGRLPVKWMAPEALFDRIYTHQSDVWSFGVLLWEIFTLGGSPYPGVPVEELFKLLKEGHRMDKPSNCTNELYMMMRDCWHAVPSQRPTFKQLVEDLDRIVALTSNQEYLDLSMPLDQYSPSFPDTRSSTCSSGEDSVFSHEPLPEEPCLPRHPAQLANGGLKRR
wild-type un-phosphorylated FGFR3, sequence (P22607 23-806): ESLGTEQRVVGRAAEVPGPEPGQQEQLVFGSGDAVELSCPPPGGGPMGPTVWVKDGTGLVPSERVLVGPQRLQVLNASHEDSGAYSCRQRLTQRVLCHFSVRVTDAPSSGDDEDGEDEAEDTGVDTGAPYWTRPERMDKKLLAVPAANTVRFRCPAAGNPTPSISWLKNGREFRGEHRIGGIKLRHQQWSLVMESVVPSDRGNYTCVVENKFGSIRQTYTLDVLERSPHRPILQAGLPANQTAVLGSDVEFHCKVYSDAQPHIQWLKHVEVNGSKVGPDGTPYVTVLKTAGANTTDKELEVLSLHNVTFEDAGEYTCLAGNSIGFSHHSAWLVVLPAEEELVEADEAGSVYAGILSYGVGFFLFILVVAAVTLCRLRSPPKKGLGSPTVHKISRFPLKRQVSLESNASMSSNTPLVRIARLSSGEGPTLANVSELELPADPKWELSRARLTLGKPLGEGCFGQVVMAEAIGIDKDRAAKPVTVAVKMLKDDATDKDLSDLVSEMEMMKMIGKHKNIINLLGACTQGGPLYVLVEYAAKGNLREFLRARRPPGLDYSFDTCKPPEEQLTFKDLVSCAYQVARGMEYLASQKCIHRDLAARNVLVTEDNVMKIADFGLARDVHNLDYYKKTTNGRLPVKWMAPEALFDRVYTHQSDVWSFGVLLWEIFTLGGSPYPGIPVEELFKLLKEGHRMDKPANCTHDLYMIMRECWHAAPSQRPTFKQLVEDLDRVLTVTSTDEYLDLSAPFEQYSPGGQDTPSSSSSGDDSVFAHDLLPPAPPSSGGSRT

Turning to `COc1cc2[nH]nc(-c3cnn(C4CC(C#N)C4)c3)c2nc1-c1cccc2c1CCC2C#N` (stereo not drawn) [Example 111, 4-(3-(1-(3-Cyanocyclobutyl)-1H-pyrazol-4-yl)-6-methoxy-1H-pyrazolo[4,3-b]pyridin-5-yl)-2,3-dihydro-1H-indene-1-carbonitrile], the IC50 in test [1] (setting [5]) was less than 6 nM; in test [2], less than 6 nM; in test [3], less than 6 nM; in test [4], 40 to 100 nM.
Turning to `COc1cc2[nH]nc(-c3ccc(C4CCN(C(=O)CO)CC4)nc3)c2nc1-c1cccc2c1CCC2C#N` (stereo not drawn) [Example 115, 4-(3-(6-(1-(2-Hydroxyacetyl)piperidin-4-yl)pyridin-3-yl)-6-methoxy-1H-pyrazolo[4,3-b]pyridin-5-yl)-2,3-dihydro-1H-indene-1-carbonitrile], the IC50 is 6 to 40 nM in test [1] (setting [6]), less than 6 nM in test [2], less than 6 nM in test [3] and 6 to 40 nM in test [4] (setting [7]).
On to `COc1cc2[nH]nc(-c3ccc([C@@]45C[C@@H]4CN(CCO)C5)cc3)c2nc1-c1cccc2c1CCC2C#N` (stereo partly drawn) [Example 159, 4-(3-(4-((1R,5S)-3-(2-Hydroxyethyl)-3-azabicyclo[3.1.0]hexan-1-yl)phenyl)-6-methoxy-1H-pyrazolo[4,3-b]pyridin-5-yl)-2,3-dihydro-1H-indene-1-carbonitrile], for which the IC50 in test [1] (setting [6]) is 6 to 40 nM; in test [2], less than 6 nM; in test [3] it was less than 6 nM; in test [4] (setting [7]), 6 to 40 nM.
On to `COc1cc2[nH]nc(-c3ccc(C4CN(C(=O)C5CCCO5)C4)nc3)c2nc1-c1cccc2c1CCC2` (stereo not drawn) [Example 172, (3-(5-(5-(2,3-Dihydro-1H-inden-4-yl)-6-methoxy-1H-pyrazolo[4,3-b]pyridin-3-yl)pyridin-2-yl)azetidin-1-yl)(tetrahydrofuran-2-yl)methanone], for which the IC50 in test [1] (setting [5]) was 40 to 100 nM; in test [2], less than 6 nM; in test [3], less than 6 nM; in test [4] it was 40 to 100 nM.
For the compound `COc1cc2[nH]nc(-c3ccc(C4CN(C(=O)CCO)C4)nc3)c2nc1-c1cccc2c1CCC2` [Example 175, 1-(3-(5-(5-(2,3-Dihydro-1H-inden-4-yl)-6-methoxy-1H-pyrazolo[4,3-b]pyridin-3-yl)pyridin-2-yl)azetidin-1-yl)-3-hydroxypropan-1-one], the IC50 in test [1] (setting [6]) is 6 to 40 nM; in test [2], less than 6 nM; in test [3] it was less than 6 nM; in test [4] (setting [7]), 6 to 40 nM.
For `COc1cc2[nH]nc(-c3ccc(C4(C#N)CCN(C(=O)CO)CC4)nc3)c2nc1-c1cccc2c1CCC2` [Example 165, 4-(5-(5-(2,3-Dihydro-1H-inden-4-yl)-6-methoxy-1H-pyrazolo[4,3-b]pyridin-3-yl)pyridin-2-yl)-1-(2-hydroxyacetyl)piperidine-4-carbonitrile], the IC50 in test [1] (setting [6]) was 6 to 40 nM; in test [2], less than 6 nM; in test [3], less than 6 nM; in test [4] (setting [7]), 6 to 40 nM.
For the compound `COc1cc2[nH]nc(-c3ccc(C4CCC(N(C)S(C)(=O)=O)C4)nc3)c2nc1-c1cccc2c1CCC2` (stereo not drawn) [Example 154, N-(3-(5-(5-(2,3-Dihydro-1H-inden-4-yl)-6-methoxy-1H-pyrazolo[4,3-b]pyridin-3-yl)pyridin-2-yl)cyclopentyl)-N-methylmethanesulfonamide], the IC50 in test [1] (setting [5]) is 40 to 100 nM; in test [2], less than 6 nM; in test [3], less than 6 nM; in test [4] it was more than 100 nM.
For the compound `COc1cc2[nH]nc(-c3ccc(C45CC4CN(CCO)C5)nc3)c2nc1-c1cccc2c1CCC2` (stereo not drawn) [Example 194A, 2-(1-(5-(5-(2,3-Dihydro-1H-inden-4-yl)-6-methoxy-1H-pyrazolo[4,3-b]pyridin-3-yl)pyridin-2-yl)-3-azabicyclo[3.1.0]hexan-3-yl)ethan-1-ol], the IC50 was 6 to 40 nM in test [1] (setting [6]), less than 6 nM in test [2], less than 6 nM in test [3] and 6 to 40 nM in test [4] (setting [7]).
With `COc1cc2[nH]nc(-c3ccc(N4CCN5C[C@@H](O)C[C@@H]5C4)nc3)c2nc1-c1cccc(C)c1C` [Example 85, (7S,8aR)-2-(5-(5-(2,3-Dimethylphenyl)-6-methoxy-1H-pyrazolo[4,3-b]pyridin-3-yl)pyridin-2-yl)octahydropyrrolo[1,2-a]pyrazin-7-ol], the IC50 in test [1] (setting [5]) is 40 to 100 nM; in test [2], less than 6 nM; in test [3] it was less than 6 nM; in test [4] it was 40 to 100 nM.
On to `COc1cc2[nH]nc(-c3cnn(C)c3)c2nc1-c1cccc2c1CC(F)C2` (stereo not drawn) [Example 84, 5-(2-Fluoro-2,3-dihydro-1H-inden-4-yl)-6-methoxy-3-(1-methyl-1H-pyrazol-4-yl)-1H-pyrazolo[4,3-b]pyridine], for which the IC50 in test [1] (setting [5]) was 40 to 100 nM; in test [2], less than 6 nM; in test [3], less than 6 nM; in test [4], more than 100 nM.
For the compound `COc1cc2[nH]nc(-c3ccc(C4CCC(N(C)C(=O)CO)C4)nc3)c2nc1-c1cccc2c1CCC2` (single isomer, unassigned) [Example 155, N-(3-(5-(5-(2,3-Dihydro-1H-inden-4-yl)-6-methoxy-1H-pyrazolo[4,3-b]pyridin-3-yl)pyridin-2-yl)cyclopentyl)-2-hydroxy-N-methylacetamide], the IC50 in test [1] (setting [6]) was 6 to 40 nM; in test [2], less than 6 nM; in test [3], less than 6 nM; in test [4] (setting [7]), 6 to 40 nM.
Consider `CCN1CCN(c2ccc(-c3n[nH]c4cc(OC)c(-c5cccc6c5CCC6)nc34)cc2)CC1` [Example 63, 5-(2,3-Dihydro-1H-inden-4-yl)-3-(4-(4-ethylpiperazin-1-yl)phenyl)-6-methoxy-1H-pyrazolo[4,3-b]pyridine], for which the IC50 in test [1] (setting [6]) was 6 to 40 nM; in test [2], less than 6 nM; in test [3] it was less than 6 nM; in test [4] it was 40 to 100 nM.
In the case of `COc1cc2[nH]nc(-c3cnn(Cc4ccncc4)c3)c2nc1-c1cccc2c1CCC2` [Example 27, 5-(2,3-Dihydro-1H-inden-4-yl)-6-methoxy-3-(1-(pyridin-4-ylmethyl)-1H-pyrazol-4-yl)-1H-pyrazolo[4,3-b]pyridine], the IC50 in test [1] (setting [5]) was 40 to 100 nM; in test [3], less than 6 nM; in test [4] it was 40 to 100 nM.
Take `COc1cc2[nH]nc(-c3ccc(C4CC(=O)N(C)C4)nc3)c2nc1-c1cccc2c1CCC2C#N` (single isomer, unassigned) [Example 76, 4-(6-Methoxy-3-(6-(1-methyl-5-oxopyrrolidin-3-yl)pyridin-3-yl)-1H-pyrazolo[4,3-b]pyridin-5-yl)-2,3-dihydro-1H-indene-1-carbonitrile]: the IC50 in test [1] (setting [6]) was 6 to 40 nM; in test [2] (read-out: FGFR3, wild-type un-phosphorylated FGFR3, pre-incubated for 4 hours), less than 6 nM; in test [3] (setting [8]), less than 6 nM.
As for `COc1cc2[nH]nc(-c3ccc(OC4CCOC4)nc3)c2nc1-c1cccc2c1CC(O)C2` (single isomer, unassigned) [Example 73, 4-(6-Methoxy-3-(6-((tetrahydrofuran-3-yl)oxy)pyridin-3-yl)-1H-pyrazolo[4,3-b]pyridin-5-yl)-2,3-dihydro-1H-inden-2-ol], the IC50 in test [1] (setting [5]) is 40 to 100 nM; in test [2], less than 6 nM; in test [3] (setting [8]), 6 to 40 nM.
As to `COc1cc2[nH]nc(-c3ccc(C4(C#N)CCN(C(=O)[C@H]5COCCN5C)C4)nc3)c2nc1-c1cccc2c1CCC2` (stereo partly drawn) [Example 195, 3-(5-(5-(2,3-Dihydro-1H-inden-4-yl)-6-methoxy-1H-pyrazolo[4,3-b]pyridin-3-yl)pyridin-2-yl)-1-((R)-4-methylmorpholine-3-carbonyl)pyrrolidine-3-carbonitrile], the IC50 in test [1] (setting [6]) is 6 to 40 nM; in test [2], less than 6 nM; in test [3] it was less than 6 nM.
Consider `[2H]C([2H])([2H])Oc1cc2[nH]nc(-c3ccc(N4CCN(C)CC4)nc3)c2nc1-c1cccc(C)c1C` [Example 48, 5-(2,3-Dimethylphenyl)-6-(methoxy-d3)-3-(6-(4-methylpiperazin-1-yl)pyridin-3-yl)-1H-pyrazolo[4,3-b]pyridine], for which the results for the IC50 in test [1] (setting [5]), in test [2] and in test [3] were 40 to 100 nM, less than 6 nM and less than 6 nM, respectively.
Turning to `COc1cc2[nH]nc(-c3ccc(N4CCN5C[C@H](O)C[C@H]5C4)nc3)c2nc1-c1cccc(C)c1F` [Example 94, (7R,8aS)-2-(5-(5-(2-Fluoro-3-methylphenyl)-6-methoxy-1H-pyrazolo[4,3-b]pyridin-3-yl)pyridin-2-yl)octahydropyrrolo[1,2-a]pyrazin-7-ol], the IC50 is more than 100 nM in test [1] (setting [5]), less than 6 nM in test [2] and 6 to 40 nM in test [3] (setting [8]).
As to `COc1cc2[nH]nc(-c3ccc(C4CCN(C(=O)CO)CC4)nc3)c2nc1-c1cccc2c1CC(F)C2` (stereo not drawn) [Example 82, 1-(4-(5-(5-(2-Fluoro-2,3-dihydro-1H-inden-4-yl)-6-methoxy-1H-pyrazolo[4,3-b]pyridin-3-yl)pyridin-2-yl)piperidin-1-yl)-2-hydroxyethan-1-one], the figures for the IC50 in test [1] (setting [6]), in test [2] and in test [3] were 6 to 40 nM, less than 6 nM and less than 6 nM, respectively.
Consider `COc1cc2[nH]nc(-c3ccc(N4CCN5C[C@H](O)C[C@H]5C4)nc3)c2nc1-c1cccc2c1OCCO2` [Example 91, (7R,8aS)-2-(5-(5-(2,3-Dihydrobenzo[b][1,4]dioxin-5-yl)-6-methoxy-1H-pyrazolo[4,3-b]pyridin-3-yl)pyridin-2-yl)octahydropyrrolo[1,2-a]pyrazin-7-ol], for which the IC50 in test [1] (setting [5]) is more than 100 nM; in test [2] it was less than 6 nM; in test [3] (setting [8]), 6 to 40 nM.
`COc1cc2[nH]nc(-c3ccc(N4CCC(O)CC4)nc3)c2nc1-c1cccc(C)c1C` [Example 46, 1-(5-(5-(2,3-Dimethylphenyl)-6-methoxy-1H-pyrazolo[4,3-b]pyridin-3-yl)pyridin-2-yl)piperidin-4-ol]: the values for the IC50 in test [1] (setting [5]), in test [2] and in test [3] were more than 100 nM, less than 6 nM and less than 6 nM, respectively.
